In patent US20050245520A1, “2-Phenylpyridin-4-yl derivatives as alk5 inhibitors” (priority 2002, published 2005):
Read-outs that look alike come from different tables or passages of the source.

Tests used:
[1] = test system: TGF-β signalling (PAI-1 promoter-luciferase in HepG2 cells); experiment: Cellular transcriptional assay: PAI-1 promoter firefly luciferase reporter in cells exposed to TGF-β; assay type: cell-based; settings: HepG2 cells, 1 ng/mL rhTGFβ-1
Experimental: Assay 1 (Cellular Transcriptional Assay)
The assay was performed in HepG2 cells stably transfected with the PAI-1 promoter (known to be a strong TGF-β responsive promoter) linked to a luciferase (firefly) reporter gene. The compounds were selected on their ability to inhibit luciferase activity in cells exposed to TGF-β. In addition, cells were transfected with a second luciferase (Renilla) gene which was not driven by a TGF-β responsive promoter and was used as a toxicity control.
96 well microplates were seeded, using a multidrop apparatus, with the stably transfected cell line at a concentration of 35000 cells per well in 200 μl of serum-containing medium. These plates were placed in a cell incubator.
18 to 24 hours later (Day 2), cell-incubation procedure was launched. Cells were incubated with TGF-β and a candidate compound at concentrations in the range 50 nM to 10 μM (final concentration of DMSO 1%). The final concentration of TGF-β (rhTGFβ-1) used in the test was 1 ng/mL. Cells were incubated with a candidate compound 15-30 mins prior to the addition of TGF-β. The final volume of the test reaction was 150 μl. Each well contained only one candidate compound and its effect on the PAI-1 promoter was monitored.
Columns 11 and 12 were employed as controls. Column 11 contained 8 wells in which the cells were incubated in the presence of TGF-β, without a candidate compound. Column 11 was used to determine the ‘reference TGF-β induced firefly luciferase value’ against which values measured in the test wells (to quantify inhibitory activity) were compared. […]
12 to 18 hours later (day 3), the luciferase quantification procedure was launched. […] Following agitation (15 to 30 mins), luciferase activities of the plates were read in a dual-injector luminometer (BMG lumistar). For this purpose, 50 μl of luciferase assay reagent and 50 μl of ‘Stop & Glo’ buffer were injected sequentially to quantify the activities of both luciferases. […] For each of the compounds tested, a concentration response curve was constructed from which an IC50 value was determined graphically.

[2] = molecular target: T1, recombinant GST-ALK5 (residues 198-503) (Homo sapiens, UniProt P36897); experiment: Alk5 fluorescence polarization assay (displacement of rhodamine green-labelled ligand); assay type: binding
T1 construct: assays using recombinant GST-ALK5 (residues 198-503)
T1 sequence (P36897 198-503): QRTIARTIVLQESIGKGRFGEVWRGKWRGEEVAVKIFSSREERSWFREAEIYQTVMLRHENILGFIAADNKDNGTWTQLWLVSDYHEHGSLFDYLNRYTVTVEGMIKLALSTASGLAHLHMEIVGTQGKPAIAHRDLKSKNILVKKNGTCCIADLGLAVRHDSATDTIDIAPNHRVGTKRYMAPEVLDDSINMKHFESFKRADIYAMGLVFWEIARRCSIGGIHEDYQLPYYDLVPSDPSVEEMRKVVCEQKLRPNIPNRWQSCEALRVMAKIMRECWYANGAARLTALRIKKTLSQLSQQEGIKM
Experimental: Kinase inhibitor compounds conjugated to fluorophores, can be used as fluorescent ligands to monitor ATP competitive binding of other compounds to a given kinase. The increase in depolarization of plane polarized light, caused by release of the bound ligand into solution, is measured as a polarization/anisotropy value.
The compounds were serially diluted (3-fold in 100% DMSO) across the plate to column 11 to yield 11 concentrations for each test compound. Column 12 contained only DMSO.
ALK5 was added to assay buffer containing the above components and 1 nM of the rhodamine green-labelled ligand so that the final ALK5 concentration was 10 nM based on active site titration of the enzyme. The enzyme/ligand reagent (39 μl) was added to each well of the previously prepared assay plates. […] The plates were read immediately on a LJL Acquest fluorescence reader (Molecular Devices, serial number AQ1048) with excitation, emission, and dichroic filters of 485 nm, 530 nm, and 505 nm, respectively. The fluorescence polarization for each well was calculated by the Acquest reader and then imported into curve fitting software for construction of concentration response curves. The normalized response was determined relative to the high controls (1 μl DMSO in column 12, rows A-D) and the low controls (1 μl of control compound in column 12, rows E-H). An IC50 value was then calculated for each compound

Row | IC50 [1] | IC50 ([2]; fluorescence polarization, 10 nM ALK5, 1 nM labelled ligand, read-out: ALK5 receptor modulator activity (IC50)) | IC50 ([1]; Homo sapiens) | IC50 [2] | SMILES
1 | 183 nM | 34 nM |  |  | Cc1cccc(-c2[nH]c(C(C)(C)C)nc2-c2ccnc(-c3ccc(N4CCOCC4)cc3)c2)n1 [Example 86, 4-{4-[4-(2-tert-Butyl-5-{6-methyl}-pyridin-2-yl-1 H-imidazol-4-yl)-pyridin-2-yl]-phenyl}-morpholine]
2 |  |  | < 14 nM | 25 nM | Cc1cccc(-c2nc(C(C)C)[nH]c2-c2ccnc(-c3ccc(C(=O)NC4CCOCC4)cc3)c2)n1 [Example 96, N-(tetrahydropyran-4-yl)-4-(4-{2-isopropyl-5-[6-methyl-pyridin-2-yl]-1H-imidazol-4-yl}-pyridin-2-yl)-benzamide]
